Experimental data published in patent US11912714B2, “Spiropyrrolidine derived antiviral agents” (ENANTA PHARMACEUTICALS, INC., priority 2021, dated 2024).
Like-named read-outs stand apart in the source and are kept apart here.

How the values were obtained:
[1] = tested on: 229E human corona virus (hCoV); experiment: 229E live virus assay (CPE, ATPlite) in MRC-5 cells; type: cell-based, hCoV-229E; settings: Human coronavirus 229E, MRC5, 144 h, read-out: 229E EC50
SARS-CoV-2 3CL-protease = SARS-CoV-2 3CL-protease (Severe acute respiratory syndrome coronavirus 2 (2019-nCoV) (SARS-CoV-2), UniProt P0DTD1); experiment: SARS-CoV-2 3C-like (3CL) protease fluorescence assay (FRET); type: biochemical; settings: recombinant SARS-CoV-2 3CL-protease 10 nM, 30 min preincubation, peptide substrate, duplicate
[2] = MRC-5 cells, MOI 0.05, 6 days at 34° C., ATPlite readout, duplicate

| SMILES | EC50 [1] [nM] | IC50 (SARS-CoV-2 3CL-protease) [nM] | EC50 [1, 2] [nM] |
| --- | --- | --- | --- |
| CC(C)C[C@H](C(=O)Nc1cc(F)cc(F)c1)C(=O)N(C)[C@@H](CC(C)C)C(=O)N1C[C@]2(C[C@H]1C#N)C(=O)Nc1ccccc12 (single isomer, unassigned) [Compound 4] | < 100 | < 100 |  |
| CC(C)C[C@@H](C(=O)N1C[C@]2(C[C@H]1C#N)C(=O)Nc1ccccc12)N(C)C(=O)CC(=O)Nc1ccc(F)cc1F [Compound 1] |  | < 100 | < 100 |
| CC(C)CC(C(=O)Nc1cc(F)cc(F)c1)C(=O)N(C)[C@@H](CC(C)C)C(=O)N1C[C@]2(C[C@H]1C(N)=O)C(=O)Nc1ccccc12 (stereo partly shown) [Compound 2] |  | < 100 | 100 to 1000 |
| CC(C)C[C@@H](C(=O)Nc1cc(F)cc(F)c1)C(=O)N(C)[C@@H](CC(C)C)C(=O)N1C[C@]2(C[C@H]1C#N)C(=O)Nc1ccccc12 [Compound 3] | 100 to 1000 |  |  |
| CC(C)C[C@@H](C(=O)N1C[C@]2(C[C@H]1C#N)C(=O)Nc1ccccc12)N(C)C(=O)CC(=O)OC(C)(C)C [Compound 5] |  | < 100 | < 100 |
| CC(C)C[C@@H](C(=O)N1C[C@]2(C[C@H]1C#N)C(=O)Nc1ccccc12)N(C)C(=O)CC(=O)c1cc2c(F)cc(F)cc2[nH]1 [Compound 6] |  | < 100 | < 100 |
| CC(C)C[C@@H](C(=O)N1C[C@]2(C[C@H]1C#N)C(=O)Nc1ccccc12)N(C)C(=O)C(C)(C)C(=O)O [Compound 7] |  | > 1000 |  |
| CC(C)C[C@@H](C(=O)N1C[C@]2(C[C@H]1C#N)C(=O)Nc1ccccc12)N(C)C(=O)C(C)(C)C(=O)Nc1cc(F)ccc1F [Compound 8] |  | 100 to 1000 |  |
| Cc1cccc(C)c1NC(=O)C(C)(C)C(=O)N(C)[C@@H](CC(C)C)C(=O)N1C[C@]2(C[C@H]1C#N)C(=O)Nc1ccccc12 [Compound 9] |  | 100 to 1000 |  |
| Cc1cccc(C)c1NC(=O)CC(=O)N(C)[C@@H](CC(C)C)C(=O)N1C[C@]2(C[C@H]1C#N)C(=O)Nc1ccccc12 [Compound 10] |  | < 100 |  |
| CC(C)(C)C[C@H](NC(=O)C(C)(C)C(=O)Nc1cc(F)ccc1F)C(=O)N1C[C@]2(C[C@H]1C#N)C(=O)Nc1ccccc12 [Compound 11] |  | < 100 | 100 to 1000 |
| Cc1cccc(C)c1NC(=O)C(C)(C)C(=O)N[C@@H](CC(C)(C)C)C(=O)N1C[C@]2(C[C@H]1C#N)C(=O)Nc1ccccc12 [Compound 12] |  | < 100 |  |
| Cc1cccc(C)c1NS(=O)(=O)CC(=O)N(C)[C@@H](CC(C)C)C(=O)N1C[C@]2(C[C@H]1C#N)C(=O)Nc1ccccc12 [Compound 13] |  | < 100 |  |
| Cc1cccc(C)c1NC(=O)CS(=O)(=O)N(C)[C@@H](CC(C)(C)C)C(=O)N1C[C@]2(C[C@H]1C#N)C(=O)Nc1ccccc12 [Compound 14] |  | < 100 |  |
| CC(C)C[C@@H](C(=O)N1C[C@]2(C[C@H]1C#N)C(=O)Nc1ccccc12)N(C)C(=O)CC(=O)NCC(C)(C)O [Compound 15] |  | < 100 |  |
| CC(C)C[C@@H](C(=O)N1C[C@]2(C[C@H]1C#N)C(=O)Nc1ccccc12)N(C)C(=O)CC(=O)Nc1ccccc1 [Compound 16] |  | < 100 |  |
| CC(C)C[C@@H](C(=O)N1C[C@]2(C[C@H]1C#N)C(=O)Nc1ccccc12)N(C)C(=O)CC(=O)NCc1ccccc1 [Compound 17] |  | < 100 |  |
| CC(C)C[C@@H](C(=O)N1C[C@]2(C[C@H]1C#N)C(=O)Nc1ccccc12)N(C)C(=O)CC(=O)N[C@H](C)c1ccccc1 [Compound 18] |  | < 100 |  |
| CC(C)C[C@@H](C(=O)N1C[C@]2(C[C@H]1C#N)C(=O)Nc1ccccc12)N(C)C(=O)CC(=O)Nc1cccc2ccccc12 [Compound 19] |  | < 100 |  |
| CC(C)C[C@@H](C(=O)N1C[C@]2(C[C@H]1C#N)C(=O)Nc1ccccc12)N(C)C(=O)CC(=O)N[C@@H](C)c1ccccc1 [Compound 20] |  | 100 to 1000 |  |
| CC(C)C[C@@H](C(=O)N1C[C@]2(C[C@H]1C#N)C(=O)Nc1ccccc12)N(C)C(=O)CC(=O)Nc1ccccn1 [Compound 21] |  | < 100 |  |
| CC(C)C[C@@H](C(=O)N1C[C@]2(C[C@H]1C#N)C(=O)Nc1ccccc12)N(C)C(=O)CC(=O)Nc1cccnc1 [Compound 22] |  | < 100 |  |
| CC(C)C[C@@H](C(=O)N1C[C@]2(C[C@H]1C#N)C(=O)Nc1ccccc12)N(C)C(=O)CC(=O)Nc1ccncc1 [Compound 23] |  | < 100 |  |
| CC(C)C[C@@H](C(=O)N1C[C@]2(C[C@H]1C#N)C(=O)Nc1ccccc12)N(C)C(=O)CC(=O)Nc1ccccc1F [Compound 24] |  | < 100 |  |
| CC(C)C[C@@H](C(=O)N1C[C@]2(C[C@H]1C#N)C(=O)Nc1ccccc12)N(C)C(=O)CC(=O)Nc1cccc(F)c1 [Compound 25] |  | < 100 |  |

| SMILES | EC50 [1] [nM] | IC50 (SARS-CoV-2 3CL-protease) [nM] | EC50 [1, 2] [nM] |
| --- | --- | --- | --- |
| CC(C)C[C@@H](C(=O)N1C[C@]2(C[C@H]1C#N)C(=O)Nc1ccccc12)N(C)C(=O)CC(=O)Nc1ccc(F)cc1 [Compound 26] |  | < 100 |  |
| CC(C)C[C@@H](C(=O)N1C[C@]2(C[C@H]1C#N)C(=O)Nc1ccccc12)N(C)C(=O)CC(=O)Nc1cn[nH]c1 [Compound 27] |  | < 100 |  |
| Cc1cccc(C)c1NC(=O)C1(C(=O)N[C@@H](CC(C)(C)C)C(=O)N2C[C@]3(C[C@H]2C#N)C(=O)Nc2ccccc23)CC1 [Compound 29] |  | < 100 |  |
| Cc1cccc(C)c1NC(=O)C1(C(=O)N[C@@H](CC(C)C)C(=O)N2C[C@]3(C[C@H]2C#N)C(=O)Nc2ccccc23)CCCC1 [Compound 30] |  | < 100 |  |
| CC(C)C[C@@H](C(=O)N1C[C@]2(C[C@H]1C#N)C(=O)Nc1ccccc12)N(C)C(=O)CC(=O)NC[C@H](C)O [Compound 31] |  | < 100 |  |
| CC(C)C[C@@H](C(=O)N1C[C@]2(C[C@H]1C#N)C(=O)Nc1ccccc12)N(C)C(=O)CC(=O)NC[C@@H](C)O [Compound 32] |  | < 100 |  |
| CC(C)C[C@@H](C(=O)N1C[C@]2(C[C@H]1C#N)C(=O)Nc1ccccc12)N(C)C(=O)CC(=O)N[C@H](C)CO [Compound 33] |  | < 100 |  |
| CC(C)C[C@@H](C(=O)N1C[C@]2(C[C@H]1C#N)C(=O)Nc1ccccc12)N(C)C(=O)CC(=O)N[C@@H](C)CO [Compound 34] |  | < 100 |  |
| CC(C)C[C@@H](C(=O)N1C[C@]2(C[C@H]1C#N)C(=O)Nc1ccccc12)N(C)C(=O)CC(=O)NCC(F)F [Compound 35] |  | < 100 |  |
| CC(C)C[C@@H](C(=O)N1C[C@]2(C[C@H]1C#N)C(=O)Nc1ccccc12)N(C)C(=O)CC(=O)N[C@@H]1CCN(C(=O)OC(C)(C)C)C1 [Compound 36] |  | 100 to 1000 |  |
| CC(C)C[C@@H](C(=O)N1C[C@]2(C[C@H]1C#N)C(=O)Nc1ccccc12)N(C)C(=O)CC(=O)N[C@H]1CCN(C(=O)OC(C)(C)C)C1 [Compound 37] |  | < 100 |  |
| Cc1cccc(C)c1NC(=O)C1(C(=O)N[C@@H](CC(C)C)C(=O)N2C[C@]3(C[C@H]2C#N)C(=O)Nc2ccccc23)CCOCC1 [Compound 38] |  | < 100 |  |
| CC(C)C[C@H](NC(=O)C1(C(=O)NCC(C)(C)O)CCC1)C(=O)N1C[C@]2(C[C@H]1C#N)C(=O)Nc1ccccc12 [Compound 39] |  | < 100 |  |
| Cc1cccc(C)c1NC(=O)C1(C(=O)N[C@@H](CC(C)(C)C)C(=O)N2C[C@]3(C[C@H]2C#N)C(=O)Nc2ccccc23)CCOCC1 [Compound 40] |  | < 100 |  |
| CC(C)C[C@@H](C(=O)N1C[C@]2(C[C@H]1C#N)C(=O)Nc1ccccc12)N(C)C(=O)CC(=O)N[C@@H]1CCC[C@@H]1O [Compound 41] |  | < 100 |  |
| CC(C)C[C@@H](C(=O)N1C[C@]2(C[C@H]1C#N)C(=O)Nc1ccccc12)N(C)C(=O)CC(=O)N[C@H]1CCC[C@@H]1O [Compound 42] |  | < 100 |  |
| CC(C)C[C@@H](C(=O)N1C[C@]2(C[C@H]1C#N)C(=O)Nc1ccccc12)N(C)C(=O)CC(=O)N[C@@H]1CCC[C@H]1O [Compound 43] |  | < 100 |  |
| CC(C)C[C@@H](C(=O)N1C[C@]2(C[C@H]1C#N)C(=O)Nc1ccccc12)N(C)C(=O)CC(=O)N[C@H]1CCC[C@H]1O [Compound 44] |  | < 100 |  |
| CC(C)C[C@@H](C(=O)N1C[C@]2(C[C@H]1C#N)C(=O)Nc1ccccc12)N(C)C(=O)CC(=O)N[C@@H]1CC[C@H](O)C1 [Compound 45] |  | < 100 |  |
| CC(C)C[C@@H](C(=O)N1C[C@]2(C[C@H]1C#N)C(=O)Nc1ccccc12)N(C)C(=O)CC(=O)N[C@H]1CC[C@H](O)C1 [Compound 46] |  | < 100 |  |
| CC(C)C[C@@H](C(=O)N1C[C@]2(C[C@H]1C#N)C(=O)Nc1ccccc12)N(C)C(=O)CC(=O)N[C@@H]1CC[C@@H](O)C1 [Compound 47] |  | < 100 |  |
| CC(C)C[C@@H](C(=O)N1C[C@]2(C[C@H]1C#N)C(=O)Nc1ccccc12)N(C)C(=O)CC(=O)N[C@H]1CC[C@@H](O)C1 [Compound 48] |  | < 100 |  |
| CC(C)C[C@@H](C(=O)N1C[C@]2(C[C@H]1C#N)C(=O)Nc1ccccc12)N(C)C(=O)CC(=O)N[C@@H](C)C(F)(F)F [Compound 49] |  | < 100 |  |
| CC(C)C[C@@H](C(=O)N1C[C@]2(C[C@H]1C#N)C(=O)Nc1ccccc12)N(C)C(=O)CC(=O)N[C@H](C)C(F)(F)F [Compound 50] |  | < 100 |  |
